Substitutions are numbered along the chain they refer to. Ends that are not written are not given here.
How the values were obtained:
[1] = tested on: BS69MYND Q546A; experiment: ITC binding to BS69MYND Q546A; parameters: species or system mouse
Source text: (§1) The DNA sequence encoding residues 440–562 (BS69CC-MYND) of mouse BS69/ZMYND11 was inserted into a modified PRSF-duet vector (Novagen), in which the BS69 fragments are separated from the preceding His6-SUMO tag by a ubiquitin-like protein (ULP1) cleavage site; and the DNA sequence encoding BS69 516–562 (BS69MYND) was inserted into a pGEX-6P-1 vector (GE Healthcare), preceded by a GST tag and a PreScission protease cleavage site. Note that the amino acid sequences of both fragments are identical to the corresponding regions of human BS69. The BS69MYND mutants were constructed by site-directed mutagenesis and confirmed by DNA sequencing. The plasmid was then transformed into BL21 (DE3) RIL cell strain for overexpression. The bacterial cells were grown at 37°C and induced by 0.4 mM isopropyl β-d-1-thiogalactopyranoside (IPTG) when the cells density reached an optical density (OD600) of 0.6. After induction, the cells continued to grow at 20°C for overnight. […]
(§2) The EBNA2_381–389 peptide with an additional Gly-Tyr dipeptide at the C-terminus (NH2-SMPSLEPVLGY-CONH2), the EBNA2_435–445 peptide, and the EBNA2_381–445 peptide were used for ITC assays. […] The ITC data was analyzed with the Origin 7.0 software using a one-site fitting model.

[2] = target: T1, BS69CC-MYND (Mus musculus, UniProt Q8R5C8); experiment: ITC binding to BS69CC-MYND wild type; conditions: EBNA2_435–445, peptide titrated into BS69CC-MYND, 5°C, 20 mM Tris-HCl pH 7.5, 100 mM NaCl, 2 mM DTT, one-site fitting, read-out: dissociation constant (K d)
T1 construct: His6-SUMO (N, cleaved yes); made in house; host or cells: E. coli BL21 (DE3) RIL
T1 sequence (Q8R5C8 480-602): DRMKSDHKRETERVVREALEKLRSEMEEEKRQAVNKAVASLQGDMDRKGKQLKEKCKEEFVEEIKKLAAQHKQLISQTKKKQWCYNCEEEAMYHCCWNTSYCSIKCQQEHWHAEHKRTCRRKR
Source text: as §1, §2

[3] = tested on: BS69CC-MYND Q546A; experiment: ITC binding to BS69CC-MYND Q546A; parameters: species or system mouse; conditions: S1D Fig; ITC parameters could not be reliably determined
Source text: as §1, §2

[4] = target: T2, BS69MYND (Mus musculus, UniProt Q8R5C8); experiment: ITC binding to BS69MYND wild type; conditions: EBNA2_435–445, peptide titrated into BS69MYND, 5°C, 20 mM Tris-HCl pH 7.5, 100 mM NaCl, 2 mM DTT, one-site fitting, read-out: dissociation constant (K d)
T2 construct: GST (N, cleaved yes); made in house; host or cells: E. coli BL21 (DE3) RIL
T2 sequence (Q8R5C8 556-602): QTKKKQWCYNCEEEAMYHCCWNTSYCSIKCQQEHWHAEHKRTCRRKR
Source text: as §1, §2

[5] = tested on: BS69CC-MYND Q546A/W550A; experiment: ITC binding to BS69CC-MYND Q546A/W550A; parameters: species or system mouse; conditions: S1E Fig; ITC parameters could not be reliably determined
Source text: as §1, §2

[6] = target: T3, BS69MYND Y532A (Mus musculus, UniProt Q8R5C8, Y572A); experiment: ITC binding to BS69MYND Y532A; conditions: versus BS69MYND wild type
T3 construct: GST (N, cleaved yes); made in house; host or cells: E. coli BL21 (DE3) RIL
T3 sequence (Q8R5C8 556-602 Y572A): T2 sequence (Q8R5C8 556-602) with Y17A
Source text: as §1, §2

[7] = tested on: BS69MYND W550A; experiment: ITC binding to BS69MYND W550A; parameters: species or system mouse; conditions: mutation W550A, EBNA2_381–389 peptide used with additional C-terminal Gly-Tyr
Source text: as §1, §2

[8] = target: T4, BS69MYND R560A (Mus musculus, UniProt Q8R5C8, R600A); experiment: ITC binding to BS69MYND R560A; conditions: versus BS69MYND wild type
T4 construct: GST (N, cleaved yes); made in house; host or cells: E. coli BL21 (DE3) RIL
T4 sequence (Q8R5C8 556-602 R600A): T2 sequence (Q8R5C8 556-602) with R45A
Source text: as §1, §2

Substance: EAPILFPDDWY-NH2 [EBNA2_435–445]
- effect of Q546A on binding affinity of BS69MYND-EBNA2_435–445 complex ([1]; BS69MYND Q546A): substantially decreases
- Kd [2]: 34.9 µM
- ITC heat measurements with BS69CC-MYND Q546A [3]: significantly lower than those of Fig 2H
- Kd [4]: 93.4 µM
- ITC heat measurements with BS69CC-MYND Q546A/W550A [5]: significantly lower than those of Fig 2H

Substance: H-SMPSLEPVLGY-NH2 [EBNA2_381–389]
- interaction with BS69MYND Q546A ([1]; mutation Q546A, EBNA2_381–389 peptide used with additional C-terminal Gly-Tyr): largely abolished the interaction
- decrease of BS69MYND-EBNA2_381–389 binding by mutation Y532A [6]: about 3 fold
- interaction with BS69MYND W550A [7]: largely abolished the interaction
- decrease of BS69MYND-EBNA2_381–389 binding by mutation R560A [8]: ~10 fold
